Laboratory results published in patent US12036312B2, “Non-aqueous topical compositions comprising a halogenated salicylanilide” (priority 2016, dated 2024).
In brackets after ≈: the same amount, converted by molar mass.

Tested on: S. aureus
Test: MIC assay according to CLSI criteria, Example 2, S. aureus strains
Type: cell-based, Staphylococcus aureus
Conditions: Staphylococcus aureus
Excerpt: Chosen for its relevance regarding bacterial skin infections, the methicillin-resistant S. aureus (MRSA) 01 strain was used as the primary test microorganism. This strain is a community-acquired MRSA clinical isolate of USA 300 type, from a skin abscess.
Two-hundred-four other MRSA and methicillin-sensitive S. aureus strains, and 4 Streptococcus pyogenes strains, were also included in the study. These covered fusidic acid- and mupirocin-resistant strains, these two types of resistance being of clinical relevance.
Strains were conserved in Luria Bertani (LB) Broth (S. aureus) or Brain Heart Infusion (BHI) (S. pyogenes) supplemented with glycerol 15% (v/v) at −80° C., and reactivated by isolation on LB (S. aureus) or BHI (S. pyogenes) agar plates. Strains were cultivated in Mueller Hinton (MH) Broth-cation adjusted (S. aureus) or BHI (S. pyogenes). All strains were cultivated aerobically (microaerobically for S. pyogenes strains) at 37° C.
Bacterial cultures were stopped in their exponential growth phase and plates were inoculated with the approximate concentration of 5×10^5 cells per well. Plates were incubated at 37° C. for 18 hours (S. aureus) or 24 hours (S. pyogenes). Optical density at a wavelength of 600 nm was measured at the end of the incubation time.

In the case of `C=C[C@]1(C)C[C@@H](OC(=O)CS[C@@H]2C[C@H]3CC[C@@H](C2)N3C)[C@]2(C)[C@H](C)CC[C@]3(CCC(=O)[C@H]32)[C@@H](C)[C@@H]1O` [Retapamulin, retapamulin], the MIC (MRSA, strain MRSA 102) is reported as 0.03 µg/mL (≈ 0.0579 µM), the MIC (MRSA, strain MRSA 103) is reported as 0.03 µg/mL (≈ 0.0579 µM) and the MIC (MRSA, strain MRSA 104) is reported as 0.03 µg/mL (≈ 0.0579 µM). For the same molecule, the MIC (MRSA, strain MRSA 105) was 0.03 µg/mL (≈ 0.0579 µM), the MIC (MRSA, strain MRSA 106) was 0.06 µg/mL (≈ 0.116 µM) and the MIC (MRSA, strain MRSA 107) was 0.06 µg/mL (≈ 0.116 µM). The MIC (MRSA, strain MRSA 108) was 0.03 µg/mL (≈ 0.0579 µM), the MIC (MRSA, strain MRSA 109) was 0.03 µg/mL (≈ 0.0579 µM) and the MIC (MRSA, strain MRSA 110) was 0.03 µg/mL (≈ 0.0579 µM). It also gave an MIC (MRSA, strain MRSA 111) of 0.03 µg/mL (≈ 0.0579 µM), an MIC (MRSA, strain MRSA 112) of 0.03 µg/mL (≈ 0.0579 µM) and an MIC (MRSA, strain MRSA 113) of 0.03 µg/mL (≈ 0.0579 µM). The MIC (MSSA, strain MSSA 01) was 0.03 µg/mL (≈ 0.0579 µM), the MIC (MSSA, strain MSSA 02) was 0.03 µg/mL (≈ 0.0579 µM) and the MIC (NEWMAN, strain Newman) was 0.03 µg/mL (≈ 0.0579 µM). The MIC (strain 9-1862936) was 0.03 µg/mL (≈ 0.0579 µM), the MIC (strain 9-2625962) was 0.03 µg/mL (≈ 0.0579 µM) and the MIC (strain 9-2642158) was 0.06 µg/mL (≈ 0.116 µM). It also gave an MIC (strain 9-2955245) of 0.06 µg/mL (≈ 0.116 µM), an MIC (strain 9-26422166) of 0.03 µg/mL (≈ 0.0579 µM) and an MIC (strain 000040C) of 0.03 µg/mL (≈ 0.0579 µM). It also gave an MIC (strain 000041C) of 0.03 µg/mL (≈ 0.0579 µM), an MIC (strain 000274T) of 0.06 µg/mL (≈ 0.116 µM) and an MIC (strain 114660U) of 0.06 µg/mL (≈ 0.116 µM). For the same molecule, the MIC (strain 115015T) was 0.06 µg/mL (≈ 0.116 µM), the MIC (strain 115242C) was 0.03 µg/mL (≈ 0.0579 µM) and the MIC (strain 115263C) was 0.03 µg/mL (≈ 0.0579 µM). The MIC (strain 115268C) was 0.03 µg/mL (≈ 0.0579 µM), the MIC (strain 115273C) was 0.03 µg/mL (≈ 0.0579 µM) and the MIC (strain 115295C) was 0.03 µg/mL (≈ 0.0579 µM). It also gave an MIC (strain 115303C) of 0.03 µg/mL (≈ 0.0579 µM), an MIC (strain 115370U) of 0.06 µg/mL (≈ 0.116 µM) and an MIC (strain 115427C) of 0.03 µg/mL (≈ 0.0579 µM). It also gave an MIC (strain 115445C) of 0.03 µg/mL (≈ 0.0579 µM), an MIC (strain 115561C) of 0.03 µg/mL (≈ 0.0579 µM) and an MIC (strain 115584D) of 0.06 µg/mL (≈ 0.116 µM). The MIC (strain 115628T) was 0.03 µg/mL (≈ 0.0579 µM), the MIC (strain 115690C) was 0.25 µg/mL (≈ 0.483 µM) and the MIC (strain 115691T) was 0.03 µg/mL (≈ 0.0579 µM). For the same molecule, the MIC (strain 115740E) was 0.06 µg/mL (≈ 0.116 µM), the MIC (strain 115810E) was 0.06 µg/mL (≈ 0.116 µM) and the MIC (strain 115903T) was 0.03 µg/mL (≈ 0.0579 µM). It also gave an MIC (strain 116122T) of 0.03 µg/mL (≈ 0.0579 µM), an MIC (strain E5-1029252) of 0.03 µg/mL (≈ 0.0579 µM) and an MIC (strain E5-1029558) of 0.03 µg/mL (≈ 0.0579 µM). It also gave an MIC (strain E5-1030440) of 0.06 µg/mL (≈ 0.116 µM), an MIC (strain E5-1030469) of 0.03 µg/mL (≈ 0.0579 µM) and an MIC (strain E5-1030472) of 0.06 µg/mL (≈ 0.116 µM). For the same molecule, the MIC (strain E5-1030482) was 0.02 µg/mL (≈ 0.0386 µM), the MIC (strain E5-1033076 (first listing, r204)) was 0.03 µg/mL (≈ 0.0579 µM) and the MIC (strain E5-1033076 (second listing, r205)) was 0.03 µg/mL (≈ 0.0579 µM). For the same molecule, the MIC (strain E5-1033088) was 0.03 µg/mL (≈ 0.0579 µM), the MIC (strain E5-1033091) was 0.02 µg/mL (≈ 0.0386 µM) and the MIC (strain E5-1035277) was 0.03 µg/mL (≈ 0.0579 µM). For the same molecule, the MIC (strain E5-1035284) was 0.03 µg/mL (≈ 0.0579 µM), the MIC (strain E5-1035775) was 0.06 µg/mL (≈ 0.116 µM) and the MIC (strain E5-1035779) was 0.03 µg/mL (≈ 0.0579 µM). The MIC (strain E5-1037958) was 0.06 µg/mL (≈ 0.116 µM), the MIC (strain E5-1037971) was 0.03 µg/mL (≈ 0.0579 µM) and the MIC (strain E5-1038279) was 0.03 µg/mL (≈ 0.0579 µM). It also gave an MIC (strain E5-1038286) of 0.06 µg/mL (≈ 0.116 µM), an MIC (strain E5-1038294) of 0.03 µg/mL (≈ 0.0579 µM) and an MIC (strain E5-1039684) of 0.06 µg/mL (≈ 0.116 µM). The MIC (strain E5-1039697) was 0.06 µg/mL (≈ 0.116 µM), the MIC (strain E5-1041977) was 0.03 µg/mL (≈ 0.0579 µM) and the MIC (strain E5-1041979) was 0.03 µg/mL (≈ 0.0579 µM). It also gave an MIC (strain E5-1041980) of 0.03 µg/mL (≈ 0.0579 µM), an MIC (strain E5-1041987) of 0.03 µg/mL (≈ 0.0579 µM) and an MIC (strain E5-1043184) of 0.03 µg/mL (≈ 0.0579 µM). The MIC (strain E5-1043668) was 0.06 µg/mL (≈ 0.116 µM), the MIC (strain E5-1045179) was 0.06 µg/mL (≈ 0.116 µM) and the MIC (strain E5-1046019) was 0.03 µg/mL (≈ 0.0579 µM). The MIC (strain E5-1046020) was 0.06 µg/mL (≈ 0.116 µM), the MIC (strain E5-1046039) was 0.06 µg/mL (≈ 0.116 µM) and the MIC (strain E5-1046070) was 0.03 µg/mL (≈ 0.0579 µM). It also gave an MIC (strain E5-1046074) of 0.06 µg/mL (≈ 0.116 µM), an MIC (strain E5-1046085) of 0.06 µg/mL (≈ 0.116 µM) and an MIC (strain E5-1046096) of 0.06 µg/mL (≈ 0.116 µM). For the same molecule, the MIC (strain E5-1046296) was 0.03 µg/mL (≈ 0.0579 µM), the MIC (strain E5-1046297) was 0.06 µg/mL (≈ 0.116 µM) and the MIC (strain E5-1046298) was 0.03 µg/mL (≈ 0.0579 µM). The MIC (strain E5-1046723) was 0.06 µg/mL (≈ 0.116 µM), the MIC (strain E5-1047585) was 0.03 µg/mL (≈ 0.0579 µM) and the MIC (strain E5-1047606) was 0.03 µg/mL (≈ 0.0579 µM). It also gave an MIC (strain E5-1047924) of 0.03 µg/mL (≈ 0.0579 µM), an MIC (strain E5-1048204) of 0.03 µg/mL (≈ 0.0579 µM) and an MIC (strain E5-1048428) of 0.06 µg/mL (≈ 0.116 µM). The MIC (strain E5-1048654) was 0.06 µg/mL (≈ 0.116 µM), the MIC (strain E5-1048670) was 0.06 µg/mL (≈ 0.116 µM) and the MIC (strain EEFIC 01) was 0.03 µg/mL (≈ 0.0579 µM). It also gave an MIC (strain EEFIC 02) of 0.03 µg/mL (≈ 0.0579 µM), an MIC (strain K000772) of 0.06 µg/mL (≈ 0.116 µM) and an MIC (strain K000796) of 0.03 µg/mL (≈ 0.0579 µM). For the same molecule, the MIC (strain K000863) was 0.03 µg/mL (≈ 0.0579 µM), the MIC (strain K000864) was 0.03 µg/mL (≈ 0.0579 µM) and the MIC (strain K000866) was 0.03 µg/mL (≈ 0.0579 µM). For the same molecule, the MIC (strain K115498) was 0.03 µg/mL (≈ 0.0579 µM), the MIC (strain K115688) was 0.03 µg/mL (≈ 0.0579 µM) and the MIC (strain K115689) was 0.03 µg/mL (≈ 0.0579 µM). The MIC (strain R000019) was 0.06 µg/mL (≈ 0.116 µM), the MIC (strain R000020) was 0.03 µg/mL (≈ 0.0579 µM) and the MIC (strain R000024) was 0.06 µg/mL (≈ 0.116 µM). The MIC (strain U115579) was 0.06 µg/mL (≈ 0.116 µM).
